Columns and labels:
[1] = system: D. immitis mf Wolbachia; assay: In vitro D. immitis microfilariae assay (Wolbachia wsp copy number by qPCR); type: cell-based; conditions: six-day continuous exposure in vitro
[2] = system: D. immitis L3-L4 larval Wolbachia in NSG mice; assay: In vivo D. immitis larvae mouse assay (Example 3A); conditions: for D. immitis L4 Efficacy (median % reduction Wolbachia): larvae retrieved 2 weeks after infection
[3] = system: D. immitis L3-L4 larval Wolbachia in NSG mice; assay: In vivo D. immitis larvae mouse assay (Example 3B); conditions: for n larvae depleted ≥50% (number/total) / n larvae depleted ≥50% (percentage of larvae): oral 200 mpk bid x 1; for D. immitis L4 Efficacy (median % reduction Wolbachia): oral 200 mpk bid x 1 (single day dosing), larvae retrieved 2 weeks after infection
[4] = system: D. immitis L4 Wolbachia; assay: In vitro D. immitis L4 larvae assay (Wolbachia wsp copy number by qPCR); type: cell-based; conditions: for D. immitis L4 Efficacy (median % reduction Wolbachia): six-day continuous exposure in vitro

SMILES: C[C@H]1COCCN1c1nc(NCc2cccnc2C(F)(F)F)c2cccnc2n1 [Compound A, (S)-2-(3-methylmorpholino)-N-((2-(trifluoromethyl)pyridin-3-yl)methyl)pyrido[2,3-d]pyrimidin-4-amine]
- D. immitis mf Efficacy (median % reduction Wolbachia) ([1]; 50 nM): 64.1%
- D. immitis mf Efficacy (median % reduction Wolbachia) ([1]; 200 nM): 88.8%
- D. immitis mf Efficacy (median % reduction Wolbachia) ([1]; 5000 nM): 96.0%
- n larvae depleted ≥80% (number/total) ([2]; oral 200 mpk bid x 2): 10/11
- n larvae depleted ≥80% (percentage of larvae) ([2]; oral 200 mpk bid x 2): (90.9%)
- D. immitis L4 Efficacy (median % reduction Wolbachia) ([2]; oral 200 mpk bid x 2 (days 1-2), 200 mg/kg): 89.7%
- n larvae depleted ≥50% (number/total) [3]: 4/5
- n larvae depleted ≥50% (percentage of larvae) [3]: (80%)
- D. immitis L4 Efficacy (median % reduction Wolbachia) ([3]; 200 mg/kg): 52.1%

SMILES: CC1(C)CCN(c2nc(NCc3cccnc3C(F)(F)F)c3cccnc3n2)CC1 [Compound B, 2-(4,4-dimethylpiperidin-1-yl)-N-((2-(trifluoromethyl)pyridin-3-yl)methyl)pyrido[2,3-d]pyrimidin-4-amine]
- D. immitis mf Efficacy (median % reduction Wolbachia) ([1]; 0.5 nM): 63.9%
- D. immitis mf Efficacy (median % reduction Wolbachia) ([1]; 50 nM): 53.6%
- D. immitis L4 Efficacy (median % reduction Wolbachia) ([4]; 1 nM): 45.4%
- D. immitis L4 Efficacy (median % reduction Wolbachia) ([4]; 10 nM): 50.7%
- D. immitis L4 Efficacy (median % reduction Wolbachia) ([4]; 50 nM): 57.4%
- Wolbachia depletion in D. immitis L4 ([4]; doses between 50-10 nM, in vitro): > 50%

SMILES: FC1(F)CCN(c2nc(NCc3ccccc3C(F)(F)F)c3cccnc3n2)CC1 [Compound C, 2-(4,4-difluoropiperidin-1-yl)-N-(2-(trifluoromethyl)benzyl)pyrido[2,3-d]pyrimidin-4-amine]
- n larvae depleted ≥50% (number/total) [3]: 2/3
- n larvae depleted ≥50% (percentage of larvae) [3]: (67%)
- D. immitis L4 Efficacy (median % reduction Wolbachia) [3]: 61.7%

SMILES: FC(F)(F)OC1CCN(c2nc(NCc3cccnc3C(F)(F)F)c3cccnc3n2)CC1 [Compound D, 2-(4-(trifluoromethoxy)piperidin-1-yl)-N-((2-(trifluoromethyl)pyridin-3-yl)methyl)pyrido[2,3-d]pyrimidin-4-amine]
- n larvae depleted ≥50% (number/total) [3]: 8/12
- n larvae depleted ≥50% (percentage of larvae) [3]: (67%)
- D. immitis L4 Efficacy (median % reduction Wolbachia) [3]: 53.6%

SMILES: C[C@H]1c2cccc(O)c2C(=O)C2=C(O)[C@]3(O)C(=O)C(C(N)=O)=C(O)[C@@H](N(C)C)[C@@H]3[C@@H](O)[C@@H]21 [Doxycycline, doxycycline, reference compound]
- D. immitis mf Efficacy (median % reduction Wolbachia) ([1]; 50 nM): 10.0%
- D. immitis mf Efficacy (median % reduction Wolbachia) ([1]; 5000 nM): 58.8%
- D. immitis L4 Efficacy (median % reduction Wolbachia) ([4]; 5000 nM): 65.9%
- n larvae depleted ≥80% (number/total) ([2]; oral 50 mpk qd x 7): 4/9
- n larvae depleted ≥80% (percentage of larvae) ([2]; oral 50 mpk qd x 7): (44.4%)
- D. immitis L4 Efficacy (median % reduction Wolbachia) ([2]; oral 50 mpk qd x 7 (days 1-7 post-infection)): 69.6%

— patent publication US20240108629A1, “AZAQUINAZOLINE DERIVATIVES FOR USE IN TREATING OR PREVENTING DIROFILARIA INFECTION IN A MAMMAL” (Liverpool School of Tropical Medicine, priority 2021, published 2024)
